Tests used:
[1] = Effect on forskolin stimulated adenylate cyclase activity at 5-hydroxytryptamine 1A receptor of guinea pig hippocampus.
[2] = Binding affinity against 5-hydroxytryptamine 1A receptor
[3] = Effect on forskolin stimulated adenylate cyclase activity at 5-hydroxytryptamine 1A receptor of guinea pig hippocampus.; remark: listed apart in the source

| Structure (SMILES) | IC50 [1] [nM] | IC50 [2] [nM] | EC50 [3] [nM] |
| --- | --- | --- | --- |
| COc1ccc2[nH]cc(C[C@@H]3CCCN3C)c2c1 [5-Methoxy-3-((S)-1-methyl-pyrrolidin-2-ylmethyl)-1H-indole] | 140 | – | – |
| COc1ccc2[nH]cc(C[C@H]3CCCN3C)c2c1 [5-Methoxy-3-((R)-1-methyl-pyrrolidin-2-ylmethyl)-1H-indole] | – | 10 | 35 |

From BindingDB's records for doi:10.1021/jm00101a032 (Pfizer, 1992)
